This note sets out measurements from patent US20220017871A1, “UNDIFFERENTIATED STATE-MAINTAINING CULTURE MEDIUM FOR PLURIPOTENT STEM CELLS” (Kanto Kagaku Kabushiki Kaisha, priority 2018, published 2022).

For assay [1], the system named is iPS cells. The assay is described as follows: Measurement of intracellular ROS (DCFH-DA staining, flow cytometer). It counts as cell-based, human. The following applies: versus medium with no additive (100%). The protocol: In each of the basal medium with no additive and the albumin-added medium, cells were dispersed into single-cells, and after 1 hours, for each case, cells were fluorescently stained with DCFH-DA, and fluorescence intensity was measured using a flow cytometer.
Cells were cultured in the control media or in the medium to which the respective component had been added, then dispersed into single-cells. For each case, cells were fluorescently stained with DCFH-DA, and the fluorescence intensity was measured using a flow cytometer.

The test system of assay [2] is Human iPS cell line 253G1. The assay is described as follows: Comparison of proliferating rate in media with each added component. It counts as cell-based. The conditions noted are these: 7 days culture; NAC 8.2 mg and/or PVA 0.25 g per 100 mL basal medium; basal medium only = 1; n=3. As to the method:
To 100 mL of the basal medium, either only 8.2 mg of N-acetyl-L-cysteine was added, only 0.25 g of polyvinyl alcohol was added, or 8.2 mg of N-acetyl-L-cysteine and 0.25 g of polyvinyl alcohol were added.
(§1) Human iPS cell line 253G1 was washed with PBS, then treated with an equivalent mixture solution of TrypLE Select (ThermoScientific) and 0.5 mM EDTA at 37° C. for 5 minutes to be dispersed into single-cells, and collected.
The culture was carried out in the basal medium with no additive prepared as a control, and in a medium to which only N-acetyl-L-cysteine was added, in a medium to which only polyvinyl alcohol was added, or in a medium to which N-acetyl-L-cysteine and polyvinyl alcohol were added (n=3).

The test system of assay [3] is Human iPS cell line 253G1. Kind of assay: Confirmation of cell morphology by phase-contrast microscopy. The class given is cell-based. The following applies: third day of culturing; additive in basal medium (albumin 1 g/100 mL; NAC 8.2 mg/100 mL); spindle = good condition, globular = bad. The protocol:
as §1
The morphology of cells on the third day of culturing in the basal medium with no additive and in the albumin-added medium was observed by phase-contrast microscopy.
The morphology of cells on the third day of culturing in the control medium and in the N-acetyl-L-cysteine-added medium as a representative of 5 types of antioxidants was observed by phase-contrast microscopy.

In assay [4] the test system is Human iPS cell line 253G1. Kind of assay: Confirming cell attachment (crystal violet staining). The class given is cell-based. The conditions noted are these: 7 days culture; 0.25 g polymer or 1 g albumin per 100 mL basal medium; iMatrix-511 coated 6-well plate; n=3. As to the method: as §1
The culture was carried out in the basal medium with no additive and an albumin-added medium prepared as controls, and in a medium to which polyvinyl alcohol and in a medium to which polyvinylpyrrolidone was added (n=3).
Each of the cultured cell was stained with crystal violet and the adherence of the cells was confirmed under phase-contrast microscopy.

Where [5] appears, read: Example 1, antioxidant added to 100 mL basal medium (NAC 163 mg, GSH 307 mg).

Take `CC(=O)N[C@@H](CS)C(=O)O` [N-acetyl-L-cysteine]: the “decrease in intracellular ROS level” value in assay [1] (setting [5]) is listed as “approximately 50%”. The “increase in relative proliferating rate” value in assay [2] is on record as “approximately 1.4 fold”. Besides, the cell morphology entry in assay [3] is given as “spindle shape”.
Regarding `N[C@@H](CCC(=O)N[C@@H](CS)C(=O)NCC(=O)O)C(=O)O` [reduced glutathione], the “decrease in intracellular ROS level” value in assay [1] (setting [5]) is given as “approximately 50%”.
As to albumin, the “adherence of cells to culture container” value in assay [4] is given as “stained cells were confirmed all over the culture container”. For the same compound, in assay [1] (Comparative Example 1, 1 g albumin per 100 mL basal medium, 1 hour after dispersion into single cells), the “decrease in intracellular ROS level” value was “approximately 60%”. Also, the cell morphology entry in assay [3] is listed as “spindle shape”.
